Assay results reported in PMC6856805, “Environmental Risk Assessment for the Active Pharmaceutical Ingredient Mycophenolic Acid in European Surface Waters” (Environmental Toxicology and Chemistry, 2019).

Legend:
[1] = Antibiotic resistance risk quotient (PEC or MEC / PNECABR)
Experimental: Antibiotic resistance risk is assessed through comparing PECs or MECs with a PNEC for formation or maintenance of antibiotic resistance (PNECABR). There is no universally accepted or regulatory algorithm for deriving a reliable PNECABR for bacteria, so for the time being this is approximated by applying assessment factors to bacterial minimal inhibitory concentrations (MICs). […] To be fully consistent with Bengtsson‐Palme and Larsson's (2016) approach to PNECABR derivation, the authors were contacted for help; they (J. Bengtsson‐Palme, Department of Infectious Diseases, Institute of Biomedicine, The Sahlgrenska Academy, University of Gothenberg, Gothenberg, Sweden, personal communication) state that “we only use species with 10 or more MIC observations, to avoid drawing conclusions from insufficient data […] . The only species with >10 observations in the Noto et al. (1969) paper is S[taphylococcus] aureus. In addition, when the MIC1% are selected, only one MIC [J.O.Straub's italics] value is selected per species (the lowest). Finally, the uncertainty factor for low sampling numbers is calculated as: (observed lowest MIC) × (number of tested species) ÷ 41.” Both these provisional PNECABR values were derived from the MPA MICs; the lower was selected and compared with the PECs and MECs.
This provisional PNECABR of 64 µg MPA/L can now be compared with the PECs for STPs and surface water and with the highest MECs available. […] For surface waters, all PECs including the highest, the Guadalquivir River low‐flow 99th %ile ePiE PEC, were below the PNECABR, and thus all risk quotients were ≤0.194, all refined PEC‐per‐country risk quotients were ≤0.0083, and all mean‐ and low‐flow median ePiE PEC risk quotients were ≤0.00033; finally, the highest MEC risk quotient was 0.0103. Both models and measurements imply that throughout Europe, even in the worst‐case scenario of a southern Mediterranean catchment with extremely low river flow in summer, no significant antibiotic resistance risk emerges for MPA.

[2] = Risk quotient PEC/PNEC or MEC/PNEC for STPs and surface freshwaters
Experimental: The potential risk for STPs and surface freshwater organisms was characterized by dividing the various PECs and MECs by the respective PNECs for MPA (Committee for Medicinal Products for Human Use 2015). Further risk assessments were performed for antibiotic resistance risk due to the described antibiotic activity of MPA, risk for environmental top predators, and also risk for humans through so‐called secondary poisoning from uptake of water or fish.

daphnid = conditions: in vivo

## COc1c(C)c2c(c(O)c1CC=C(C)CCC(=O)O)C(=O)OC2 [MPA, 6‐(1,3‐dihydro‐4‐hydroxy‐6‐methoxy‐7‐methyl‐3‐oxo‐5‐isobenzofuranyl)‐4‐methyl‐4‐hexenoic acid]
[1]
  antibiotic resistance risk quotient, highest MEC: 0.0103
  antibiotic resistance risk quotients, all mean‐ and low‐flow median ePiE PEC: ≤ 0.00033
  antibiotic resistance risk quotients, all refined PEC‐per‐country: ≤ 0.0083
[1]; highest STP effluent MEC 4.19 µg/L
  antibiotic resistance risk quotient, STPs: 0.065
[1]; highest refined PECSTP 8.83 µg MPA/L
  antibiotic resistance risk quotient, STPs: 0.138
[1]; including Guadalquivir low‐flow 99th %ile ePiE PEC
  antibiotic resistance risk quotients, surface waters, all PECs: ≤ 0.194
[2]; PECSTP 8.83 µg/L / PNECSTP
  highest PEC‐based risk quotient for STPs: 0.00128
[2]; STP effluent MEC 4.19 µg/L / PNECSTP
  highest MEC‐based risk quotient for STPs: 0.0006
[2]; STP removal 0%
  Risk quotient (PNECEC10), Average initial EMA EU PEC: 0.516
[2]; STP removal 12%
  Risk quotient (PNECEC10), Average refined PEC per country: 0.141
  Risk quotient (PNECEC10), Guadalquivir catchment low flow 99th percentile ePiE PEC: 21.41
  Risk quotient (PNECEC10), Guadalquivir catchment low flow median ePiE PEC: <0.002
  Risk quotient (PNECEC10), Guadalquivir catchment mean flow 1st percentile ePiE PEC: <0.002
  Risk quotient (PNECEC10), Guadalquivir catchment mean flow 99th percentile ePiE PEC: 9.474
  Risk quotient (PNECEC10), Guadalquivir catchment mean flow median ePiE PEC: <0.002
  Risk quotient (PNECEC10), Highest refined PEC per country: 0.917
  Risk quotient (PNECEC10), Lowest refined PEC per country: 0.003
  Risk quotient (PNECEC10), Median refined PEC per country: 0.100
  Risk quotient (PNECEC10), Ouse catchment low flow 99th percentile ePiE PEC: 4.967
  Risk quotient (PNECEC10), Ouse catchment low flow median ePiE PEC: 0.336
  Risk quotient (PNECEC10), Ouse catchment mean flow 1st percentile ePiE PEC: 0.002
  Risk quotient (PNECEC10), Ouse catchment mean flow 99th percentile ePiE PEC: 1.226
  Risk quotient (PNECEC10), Ouse catchment mean flow median ePiE PEC: 0.083
  Risk quotient (PNECEC10), Rhine catchment low flow 99th percentile ePiE PEC: 4.597
  Risk quotient (PNECEC10), Rhine catchment low flow median ePiE PEC: 0.036
  Risk quotient (PNECEC10), Rhine catchment mean flow 1st percentile ePiE PEC: <0.002
  Risk quotient (PNECEC10), Rhine catchment mean flow 99th percentile ePiE PEC: 1.157
  Risk quotient (PNECEC10), Turia catchment low flow median ePiE PEC: 0.300
  Risk quotient (PNECEC10), Turia catchment mean flow 1st percentile ePiE PEC: <0.002
  Risk quotient (PNECEC10), Turia catchment mean flow 99th percentile ePiE PEC: 0.955
  Risk quotient (PNECEC10), Turia catchment mean flow median ePiE PEC: 0.048
[2]; STP removal 43.6%
  Risk quotient (PNECEC10), Average refined PEC per country: 0.100
  Risk quotient (PNECEC10), Highest refined PEC per country: 0.660
  Risk quotient (PNECEC10), Lowest refined PEC per country: 0.002
  Risk quotient (PNECEC10), Median refined PEC per country: 0.072
[2]; STP removal 73.1%
  Risk quotient (PNECEC10), Average refined PEC per country: 0.064
  Risk quotient (PNECEC10), Highest refined PEC per country: 0.422
  Risk quotient (PNECEC10), Lowest refined PEC per country: <0.002
  Risk quotient (PNECEC10), Median refined PEC per country: 0.047
[2]; initial use‐based Europe‐wide PEC
  risk quotient for the PNECNOEC: 2.27
[2]; surface water MECs
  Risk quotient (PNECEC10), Maximum MEC: 1.131
  Risk quotient (PNECEC10), Median MEC: ~0.003
daphnid
  48‐h NOEC: 440 mg/L
